Measured values as given in patent US20060128699A1, “Novel pharmacophore for the discovery and testing of na,k-atpase inhibitor compositions and methods for their use in treating cardiovascular diseases and conditions” (priority 2002, published 2006).
Where “and” joins values, the source holds several entries; their conditions need not be identical. Equal values may be shown once.

Tests used:
Na, K-ATPase [1] = target: T1, Na, K-ATPase (Ovis aries, UniProt P04074); assay: NKA assay started by addition of ATP; type: biochemical, lamb; details: for ratio (digoxin) / IC50: assay started by addition of ATP; for ratio (digoxin): IC50_aver. relative to digoxin
T1 construct: Na, K-ATPase will be purified from the outer medulla of frozen lamb kidney; from tissue; host or cells: outer medulla of frozen lamb kidney
Text: (§1) Briefly Na, K-ATPase will be purified from the outer medulla of frozen lamb kidney. Competitive binding assays will be performed in the presence and absence of varying concentrations of the potential inhibitors. Inhibition studies will be carried out with and without varying concentrations of the potential inhibitors, and the NADPH oxidation rate in the presence and absence of the inhibitors will be determined.

Na, K-ATPase [2] = target: T1, Na, K-ATPase; assay: NKA assay started by addition of KCl; type: biochemical, lamb; details: for ratio (digoxin): IC50_aver. relative to digoxin
Text: as §1

[3] = target: human 1α-subunit of the Na, K-ATPase (Homo sapiens, UniProt P05023); details: cited from earlier work
[4] = target: sheep 1α-subunit of the Na, K-ATPase, D121N mutant (Ovis aries, UniProt P04074, D126N); details: D121N versus wild-type sheep; cited from earlier work
[5] = target: sheep 1α-subunit of the Na, K-ATPase, Q111R and N122D mutant (Ovis aries, UniProt P04074, N127D/Q116R); details: Q111R and N122D versus wild-type sheep catalytic subunit; cited from earlier work
[6] = target: rat 1α-subunit of the Na, K-ATPase (Rattus norvegicus, UniProt P06685); details: cited from earlier work
[7] = determination 1, read-out: IC50_1
[8] = determination 2, read-out: IC50_2
[9] = assay started by addition of KCl
[10] = determination 3, read-out: IC50_3
[11] = assay started by addition of KCl, average, read-out: IC50_aver.
[12] = assay started by addition of KCl, determination 1, read-out: IC50_1
[13] = assay started by addition of KCl, determination 2, read-out: IC50_2

| Molecule | ratio (digoxin) (Na, K-ATPase [1]) | IC50 (Na, K-ATPase [1]; average, read-out: IC50_aver.) | IC50 (Na, K-ATPase [1]; [7]) | IC50 (Na, K-ATPase [1]; [8]) | ratio (digoxin) (Na, K-ATPase [2]; [9]) | ATPase inhibition (in words) (Na, K-ATPase [1]) | IC50 (Na, K-ATPase [1]; [10]) | further results |
| --- | --- | --- | --- | --- | --- | --- | --- | --- |
| Oc1cc(O)c2c(c1)O[C@H](c1ccc(O)c(O)c1)[C@@H](O)C2 [Compound 9, (+)-Catechin Hydrate] | 664 | 270 µM | 287 µM | 253 µM | – | – | – | – |
| O=C1C=CC2C(=C1[N+](=O)[O-])Oc1c(ccc(O)c1[N+](=O)[O-])C2c1ccccc1C(=O)O (stereo not shown) [Compound 14, 4′-5′ Di nitroflorescein] | 21.5 | 8.75 µM | 5.69 µM | 8.87 µM | 869 | strong ATPase inhibition | 11.7 µM | IC50 (Na, K-ATPase [2]; IC50_1, assay started by addition of KCl, determination 1): 7.81 µM; IC50 (Na, K-ATPase [2]; IC50_2, assay started by addition of KCl, determination 2): 9.53 µM; IC50 (Na, K-ATPase [2]; IC50_aver., assay started by addition of KCl, average): 8.69 µM |
| Cc1cc(O)c2c(c1)C(=O)c1cc(O)cc(O)c1C2=O [Compound 15, Emodin] | 220 | 89.8 µM | 32.2 µM | 75.5 µM | – | – | 162 µM | – |
| CC(CCc1ccc(O)cc1)NCCc1ccc(O)c(O)c1 (stereo not shown) [Compound 25, R—S Dobutamine] | 173 | 70.6 µM | 64.4 µM | 76.8 µM | – | – | – | – |
| COc1cccc2c1Sc1ccccc1C(=O)C2 [Compound 27] | 497 | 203 µM | 386 µM | 102 µM | – | – | 120 µM | – |
| COc1cc2c(c(OC)c1)Sc1ccccc1C(=O)C2 [Compound 28] | – | 359 µM and 38.1 µM | – | 42.5 µM | 6764 | strong ATPase inhibition | 36.3 µM | IC50 (Na, K-ATPase [2]; [11]): 67.6 µM; IC50 (Na, K-ATPase [2]; [12]): 75.6 µM; IC50 (Na, K-ATPase [2]; [13]): 59.7 µM; IC50 (Na, K-ATPase [1]; determination 4, read-out: IC50_4): 145 µM |
| C[C@@H]1O[C@@H](O[C@H]2C[C@@H](O)[C@]3(CO)[C@H]4[C@H](O)C[C@]5(C)[C@@H](C6=CC(=O)OC6)CC[C@]5(O)[C@@H]4CC[C@]3(O)C2)[C@H](O)[C@H](O)[C@H]1O [ouabain] | – | – | – | – | – | – | – | sensitivity to ouabain (in words) [3]: sensitive; decrease in sensitivity to ouabain [4]: 1000 fold; less sensitive to ouabain than wild-type [5]: 1150 fold; sensitivity to ouabain inhibition (in words) ([6]; rat subunit): insensitive; loss in ouabain inhibition ([6]; rat α1-subunit): ~1000 fold |
| Lacmoid [Compound 19] | 32.9 | 13.4 µM | 11.2 µM | 192 µM | 340 | strong ATPase inhibition | 9.7 µM | IC50 (Na, K-ATPase [2]; [11]): 3.4 µM; IC50 (Na, K-ATPase [2]; [12]): 3.55 µM; IC50 (Na, K-ATPase [2]; [13]): 3.25 µM |
